Experiments:
ERK 1/2 = assay: Activation of ERK 1/2 [pERK1/2(T202/Y204)] by obestatin in L6E9 myoblasts, immunoblot; assay type: cell-based, rat
Experimental: FIG. 1. Activation of regulatory enzymes of mitogenesis and myogenesis by obestatin in L6E9 myoblasts and myotubes. Effect of obestatin on activity of regulatory enzymes of the mitogenic capacity (ERK 1/2), metabolic capacity (Akt and AMPK) and myogenic capacity (Akt and p38). Based on a dose-response study, the saturating dose for the maximum enzymatic activation is established for a concentration of 5 nM. […] Inactivation of AMPK is described in both cell models. The activation profile discovers bimodal characteristics for the action of obestatin: 1.—mitogenic activation in myoblasts; and, 2.—myogenic activation. The immunoblots are representative of 6 independent assays.
The studies were performed based on the use of L6E9 rat myoblasts which were maintained in growth medium (GM) formed by DMEM (Dulbecco's Modified Eagle Medium) supplemented with 10% fetal bovine serum (FBS), 100 U/mL penicillin, and 100 U/mL streptomycin. For the differentiation, the cells were cultured at 80-100% of confluence in GM and it was replaced for differentiation medium (DM) formed by DMEM supplemented with 2% FBS, 100 U/mL penicillin, and 100 U/mL streptomycin during 6 days.
(§1) The tissue or cell samples were directly lysed in RIPA buffer [Tris-HCl (pH 7.2), 50 mM; NaCl, 150 mM; EDTA, 1 mM; NP-40, 1% (v/v); Sodium deoxycholate, 0.25% (w/v); protease inhibitors (Sigma); phosphatise inhibitors (Sigma)]. The lysates were clarified by centrifugation (14,000×g during 15 min at 4° C.) and the protein concentration was quantified using QuantiPro™ BCA assay kit (Sigma). For immunoblot, equal amounts of protein were loaded which were fractionated in SOS-PAGE gels and transferred to nitrocellulose membranes. The immunoreactive bands were detected by chemiluminescence (Pierce ECL Western Blotting Substrate; Thermo Scientific, Ill., USA).
To define the mitogenic and myogenic effect of obestatin, the activation capacity was studied of intracellular targets regulating proliferation (ERK1/2) and/or differentiation (p38 and Akt). […]

[1] = test system: damaged tibialis anterior of mouse; assay: Local administration in damaged tibialis anterior of mouse: myogenic markers, immunoblot; assay type: in vivo, Swiss mice; conditions: 300 nmol/kg weight local, 24 h intervals
Experimental: FIG. 8. Effect of the exogenous administration of obestatin in the damaged tibialis anterior of mouse (animal model) on the myogenic markers PAX-7 (A), MyoD (B), myogenin (C) and eMHC (D). Effect of the local exogenous administration of obestatin (300 nmol/kg/24 h) on early and later markers of myogenesis in damaged skeletal muscle tissue (tibialis anterior) in mice. The protein levels are expressed as % of the control obtained from the group of animals with administration of PBS (n=10 per group; mean±standard error; *, #, p<0.005).
as §1
The mice (30 g; n=50) were maintained in 12 h light-darkness cycled with free access to standard diet and water. To induce the muscle damage, the tibialis anterior muscle (TA) was extracted under anaesthesia and subjected to three cycles of damage due to cold contact applying along the length of the muscle a metal bar cooled in liquid nitrogen. The damaged muscles were treated locally with obestatin injection (300 nmol/kg weight) or the corresponding vehicle (PBS; control) during the times indicated in 24 h intervals. The animals were assigned to one of the five experimental groups (n=10/group): 1) control group (saline); 2) obestatin group 48 h (obestatin 300 nmol/kg weight/24 h); 3) obestatin group 96 h (obestatin 300 nmol/kg weight/24 h); 4) obestatin group 168 h (obestatin 300 nmol/kg weight/24 h); and, obestatin group 240 h (obestatin 300 nmol/kg weight/24 h). After the indicated times, the mice were sacrificed by cervical dislocation under anaesthetic treatment and the tissues were extracted for immunoblot and immunohistochemical analyses.
The estimate of the therapeutic potential of obestatin as muscle regenerator agent was assessed in Swiss mice wherein muscle damage was induced in the tibialis anterior and obestatin (300 nmol/kg weight) or the corresponding vehicle (PBS) was later locally administered. The muscles were extracted and analysed by immunoblot 48, 96, 168 and 240 h after the treatment (n=5 per study time).

**Q.** With obestatin as the substance, how does the “obestatin concentration at which activation of ERK 1/2 [pERK1/2(T202/Y204)] was observed” value (ERK 1/2) read?
**A.** 0.1 nM

**Q.** What about the “obestatin concentration at which pERK1/2(T202/Y204) phosphorylation levels reached saturable values” (ERK 1/2; dose-response) of the same substance?
**A.** 5 nM

**Q.** What about the “time post-stimulation of maximum pERK1/2(T202/Y204) levels” value (ERK 1/2; obestatin 5 nM) of the same substance?
**A.** 10 min

**Q.** And the “expression times of each of the factors analysed (Pax-7, MyoD, myogenin, eMHC)” value [1]?
**A.** acceleration

**Q.** And the “MyoD levels in treated muscles in relation to control muscles” value ([1]; 48, 96, 168 and 240 h)?
**A.** significantly higher

**Q.** And the “Pax-7 levels in treated muscles in relation to control muscles” value ([1]; 48, 96, 168 and 240 h)?
**A.** significantly higher

**Q.** What about the “eMHC levels in treated muscles in relation to control muscles” value ([1]; 48, 96, 168 and 240 h) of the same substance?
**A.** significantly higher

**Q.** What about the “myogenin levels in treated muscles in relation to control muscles” value ([1]; 48, 96, 168 and 240 h) of the same substance?
**A.** significantly higher

From patent US20150094264A1, “USE OF OBESTATIN FOR MUSCLE REGENERATION” (UNIVERSIDADE DE SANTIAGO DE COMPOSTELA, priority 2012, published 2015)
